Measured values reported in patent US10336693B2 (priority 2015, dated 2019).

How the values were obtained:
[1] = test system: neuraminidase (NA) of Influenza A/Korea/2785/2009 (H275Y mutation); format: biochemical, Influenza A virus
[2] = test system: virus showing oseltamivir resistance due to the H275Y mutation; format: binding, influenza virus
[3] = test system: neuraminidase site of oseltamivir-resistant virus (mutant type); set-up: species or system influenza virus

| SMILES | inhibition of NA activity of mutant-type virus compared with wild-type virus [1] | affinity for H275Y oseltamivir-resistant virus relative to oseltamivir sensitive virus [2] | affinity for mutant type relative to wild type [3] |
| --- | --- | --- | --- |
| CCC(CC)O[C@@H]1C=C(C(=O)OCCCCCCN)C[C@H](N)[C@H]1NC(C)=O [oseltamivir hexylamine] | inhibited the NA activity of the mutant-type virus (H275Y mutation) more significantly than the NA activity of the wild-type virus | about 1000 fold | – |
| CCC(CC)O[C@@H]1C=C(C(=O)OCCCCCCS)C[C@H](N)[C@H]1NC(C)=O [oseltamivir hexylthiol] | inhibited the NA activity of the mutant-type virus (H275Y mutation) more significantly than the NA activity of the wild-type virus | about 1000 fold | about 250 fold |
